Results on 13 compounds are retold here after ChEMBL document CHEMBL2413026, “Synthesis and biological evaluation against Leishmania amazonensis of a series of alkyl-substituted benzophenones” (Bioorg Med Chem, 2013).

Values after ≈ are worked out from the molar mass of the structure shown.

Data set [1] is described as follows: Selectivity index, ratio of CC50 for mouse peritoneal macrophages to IC50 for promastigote form of Leishmania amazonensis MHOM/BR/71973/M2269. The format is functional.
A short description of data set [2]: Cytotoxicity against mouse peritoneal macrophages after 72 hrs by MTT assay. The format is cell-based, Peritoneal macrophage cell. On the technique in general: Tetrazolium assays rely on reduction of a dye to a coloured formazan, in cell work by metabolically active cells.
In data set [3] the test system is Leishmania amazonensis. Description: Leishmanicidal activity against promastigote form of Leishmania amazonensis MHOM/BR/71973/M2269 after 72 hrs by cell counting. Particulars: MHOM/BR/71973/M2269, 72 h. The format is functional, organism-based.
Data set [4] deals with Leishmania amazonensis. Description: Ratio of 4,4'-dihydroxybenzophenone IC50 to compound IC50 for spromastigote forms of Leishmania amazonensis MHOM/BR/71973/M2269 after 72 hrs by cell counting. The format is functional.

For `N=C(N)c1ccc(OCCCCCOc2ccc(C(=N)N)cc2)cc1` [PENTAMIDINE], in data set [1], the “Ratio CC50/IC50” value is 8.68. In addition, in data set [2], the CC50 (commonly the concentration at which the toxic effect on the cells reaches its halfway point) at 72 h amounted to 3.82 µg/mL (≈ 11.2 µM). In addition, half-maximal inhibition in the data set with Leishmania amazonensis [3] (IC50) required 0.44 µg/mL (≈ 1.29 µM).
The corresponding values for `C[C@@H]1[C@H](O)[C@@H](C)/C=C/C=C/C=C/C=C/C=C/C=C/C=C/[C@H](O[C@@H]2O[C@H](C)[C@@H](O)[C@H](N)[C@@H]2O)C[C@@H]2O[C@](O)(C[C@@H](O)C[C@@H](O)[C@H](O)CC[C@@H](O)C[C@@H](O)CC(=O)O[C@H]1C)C[C@H](O)[C@H]2C(=O)O` [AMPHOTERICIN B] are 5.32, 25 µg/mL (≈ 27.1 µM) and 4.7 µg/mL (≈ 5.09 µM).
Turning to `COc1ccc(C(=O)c2ccccc2)cc1`, in data set [2], the midpoint of cytotoxicity, the CC50 at 72 h, lay at 28 µg/mL (≈ 132 µM). The IC50 (as a rule, the concentration needed to halve the response being measured) in the data set on Leishmania amazonensis [3] turned out to be 5.05 µg/mL (≈ 23.8 µM).
Compound `CCCCOc1ccc(C(=O)c2ccccc2)cc1` registered a CC50 at 72 h in data set [2] of 28.9 µg/mL (≈ 114 µM). The compound further came in with an IC50 in the data set on Leishmania amazonensis [3] of 8.56 µg/mL (≈ 33.7 µM).
The compound `COc1ccc(C(=O)c2ccccc2)c(O)c1` [OXYBENZONE] returned a 50% cytotoxic concentration (CC50) at 72 h in data set [2] of 24.6 µg/mL (≈ 108 µM). In addition, inhibition in the data set with Leishmania amazonensis [3] was half-maximal at 4.9 µg/mL (≈ 21.5 µM) (IC50).
For `CC(C)=CCOc1ccc(C(=O)c2ccccc2)c(O)c1`, the “Ratio CC50/IC50” value in data set [1] is recorded as 19.86. Besides, the CC50 at 72 h in data set [2] was 140 µg/mL (≈ 496 µM). The compound further came in with an IC50 in the data set with Leishmania amazonensis [3] of 7.05 µg/mL (≈ 25 µM).
Regarding `O=C(c1ccccc1)c1ccc(O)cc1O` [2,4-DIHYDROXYBENZOPHENONE], in data set [2], the CC50 at 72 h is greater than 160 µg/mL. The compound also displayed an IC50 with Leishmania amazonensis [3] of 29 µg/mL (≈ 135 µM).
`O=C(c1ccccc1)c1ccc(O)cc1` showed a CC50 at 72 h in data set [2] greater than 160 µg/mL. In the data set on Leishmania amazonensis [3], the IC50 came to 40.9 µg/mL (≈ 206 µM).
The corresponding values for `CCCCOc1ccc(C(=O)c2ccccc2)c(O)c1` are 40.6 µg/mL (≈ 150 µM) and 9.8 µg/mL (≈ 36.3 µM).
In data set [2], `CC(C)=CCOc1ccc(C(=O)c2ccccc2)cc1` registered a CC50 at 72 h of 87.1 µg/mL (≈ 327 µM). Moreover, inhibition in the data set on Leishmania amazonensis [3] was half-maximal at 7.82 µg/mL (≈ 29.4 µM) (IC50).
Regarding `O=C(c1ccc(O)cc1)c1ccc(O)cc1`, in data set [2], the CC50 at 72 h was greater than 160 µg/mL. The half-maximal inhibitory concentration (IC50) in the data set with Leishmania amazonensis [3] came out at 121 µg/mL (≈ 567 µM).
Consider `CC(C)=CCOc1ccc(C(=O)c2ccc(OCC=C(C)C)cc2)cc1`, for which the “Ratio CC50/IC50” value in data set [1] was found to be 26.93. In addition, the “Ratio IC50” value in the data set on Leishmania amazonensis [4] is reported as 250. The CC50 at 72 h in data set [2] is greater than 160 µg/mL. Besides, in the data set with Leishmania amazonensis [3], half-maximal inhibition (IC50) was put at 5.94 µg/mL (≈ 16.9 µM).
`CCCCOc1ccc(C(=O)c2ccc(OCCCC)cc2)cc1`: in data set [2], the CC50 at 72 h was greater than 160 µg/mL. The same compound displayed an IC50 in the data set with Leishmania amazonensis [3] of 23.8 µg/mL (≈ 72.9 µM).
